Results on eleven molecules are retold here after PMC5103216, “Novel Agonist Bioisosteres and Common Structure-Activity Relationships for The Orphan G Protein-Coupled Receptor GPR139” (Scientific Reports, 2016).

Where “and” joins values, the source holds several entries; their conditions need not be identical. Identical values can stand only once. Like-named read-outs stand apart in the source and are kept apart here.

For data set [1], the target named is T1, GPR139 (Homo sapiens, UniProt Q6DWJ6).
T1 sequence (Q6DWJ6 1-353): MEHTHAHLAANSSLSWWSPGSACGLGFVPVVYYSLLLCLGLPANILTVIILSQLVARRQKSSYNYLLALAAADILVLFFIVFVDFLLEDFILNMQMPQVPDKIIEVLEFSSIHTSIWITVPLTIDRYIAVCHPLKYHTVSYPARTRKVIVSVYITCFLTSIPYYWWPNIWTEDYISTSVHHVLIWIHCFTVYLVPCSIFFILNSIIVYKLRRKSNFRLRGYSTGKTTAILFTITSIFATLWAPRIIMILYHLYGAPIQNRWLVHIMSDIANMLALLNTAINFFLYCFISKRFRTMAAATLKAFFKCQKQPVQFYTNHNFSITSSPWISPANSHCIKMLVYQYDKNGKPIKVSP
In words: IP-One HTRF assay measuring Gq activation in CHO-139. Format: cell-based. As to conditions: for EC50: CHO-139, 20 mM LiCl; for agonist type: IP-One assay, compared to compound 1a. Here is the method: (§1) Figure 3 IP-One HTRF® assay measuring Gq activation. Concentration-response curves of 1a, 7c (racemic), L-Trp, L-Phe, DL43, DL126, DL24, DL22, DL132 and DL130 on (A) CHO-139 and (B) CHO-M1 in the IP-One assay (final conc of LiCl = 20 mM). The dotted line represent the [IP1] response from (A) 10 μM 1a and (B) 1 μM carbachol, which is an agonist for the muscarinic acethylcholine receptor M1 that activates the Gq coupled pathway. The graphs are means ± SEM based on three independent experiments performed in triplicates.
(§2) The IP-One assay was performed as described in the work by Thomsen et al.[28], with few modifications. Breifly, CHO-139 and CHO-M1 were detached and re-suspended to a concentration of 10 million cells/mL. 5 μL 2x concentrated compound (+40 mM LiCl) and 5 μL cell suspension (50,000 cells/well) was mixed. The plate was sealed and incubated at 37 °C for 1 hour. Next, 10 μL detection reagents (lysis buffer containing 2.5% Eu^3+-anti-IP1 antibody and 2.5% IP1-d2) was added and the plate was incubated for 1 hour at room temperature. The plate was read on an Envision (PerkinElmer, Waltham, MA, USA). The time resolved-fluorescence resonance energy transfer (TR-FRET) 665 nm/615 nm ratio, which is inversely proportional to the inositol monophosphate (IP1) accumulation, was used to determine the concentration of the IP1 response.

Data set [2] addresses T2, M1 receptor (Homo sapiens, UniProt P11229).
T2 construct: host or cells: CHO-k1
T2 sequence (P11229 1-460): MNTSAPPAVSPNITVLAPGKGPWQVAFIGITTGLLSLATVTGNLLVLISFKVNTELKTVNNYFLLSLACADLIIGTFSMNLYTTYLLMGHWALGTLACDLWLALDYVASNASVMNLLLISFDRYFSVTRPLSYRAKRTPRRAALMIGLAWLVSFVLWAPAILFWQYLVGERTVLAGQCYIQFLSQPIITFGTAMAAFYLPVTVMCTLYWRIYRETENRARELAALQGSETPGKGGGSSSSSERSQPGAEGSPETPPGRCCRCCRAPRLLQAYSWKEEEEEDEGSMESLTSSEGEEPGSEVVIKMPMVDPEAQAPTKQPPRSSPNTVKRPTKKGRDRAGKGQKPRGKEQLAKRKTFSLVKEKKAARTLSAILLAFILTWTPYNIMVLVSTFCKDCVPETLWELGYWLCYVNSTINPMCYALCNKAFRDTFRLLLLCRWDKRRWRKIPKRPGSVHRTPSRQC
In words: IP-One HTRF assay in CHO-M1 (control). Format: cell-based. The protocol: as §1, §2
For orientation: TR-FRET usually uses a lanthanide donor and a delayed reading to cut background.

For data set [3], the target named is T1, GPR139. In words: cAMP dynamic 2 assay measuring Gs activation in CHO-139. Format: cell-based. Here is the method:
(§3) The cAMP assay was performed as described in the work by Thomsen et al.[28] with few modifications. Breifly, CHO-139 and CHO-M1 was detached and resuspended to a concentration of 1 million cells/mL. 5 μL 2x concentrated compound (for Gs: +100 μM IBMX and for Gi: +100 μM IBMX +10 μM forskolin (Fsk)) and 5 μL cell suspension (5,000 cells/well) was mixed. The plate was sealed and incubated at room temperature for 30 min. Next, 10 μL detection reagents (lysis buffer containing 2.5% Eu^3+-anti-cAMP antibody and 2.5% cAMP-d2) was added and the plate was incubated for 1 hour at room temperature. The plate was read on an Envision (PerkinElmer, Waltham, MA, USA). The TR-FRET 665 nm/615 nm ratio, which is inversely proportional with the cAMP production, was used to determination the concentration of the cAMP response. […]
(§4) Supplementary Figure 1. cAMP dynamic 2 assay measuring Gs activation. 5,000 cells/well of CHO-139 (pink bars) or CHO-M1 (blue bars) cells are
(§5) incubated with the indicated compounds for 30 min at room temperature in the presence of 50 µM IBMX. 5 µM and 10 µM forskolin (Fsk) serves as positive
(§6) controls. The responses are one representative out of at two independent experiments performed in triplicates. Data points are means ± SD. […]
(§7) Data points are means ± SD.

The target in data set [4] is T2, M1 receptor. Nature of the data set: cAMP dynamic 2 assay measuring Gs activation in CHO-M1 (control). It is filed as cell-based. The protocol:
as §3, §4, §5, §6, §7

Data set [5] deals with T1, GPR139. Nature of the data set: cAMP dynamic 2 assay measuring Gi activation (forskolin) in CHO-139. As to conditions: for Inhibition of the cAMP response induced by 5 μM forskolin (Gi), in words: CHO-139. It is filed as cell-based. The protocol:
as §3
(§8) Supplementary Figure 2. cAMP dynamic 2 assay measuring Gi activation. 5,000 cells/well of CHO-139 (pink bars) or CHO-M1 (blue bars) cells are
(§9) incubated with the indicated compounds for 30 min at room temperature in the presence of 50 µM IBMX and 5 uM Fsk (expect “buffer (-Fsk) where only 50
(§10) µM IBMX is present). The straight line indicate the level of cAMP upon activation with 5 uM Fsk, and the grey area ±10% of the response. The responses are
(§11) one representative out of at two independent experiments performed in triplicates. Data points are means ± SD.

Data set [6] has as its target T1, GPR139. Details: method as in ref 13, 14 (Dvorak et al.). To be noted: relative to L-Trp; 14 (Dvorak et al.); cited from earlier work.
The conditions of data set [7]: in vivo; cited from earlier work.
The conditions of data set [8]: not told; cited from earlier work.
Data set [9] deals with T1, GPR139. Details: method as in ref 11 (Shi et al.). To be noted: ref 11 (Shi et al.), cited from earlier work; for EC50: GPR139 agonist potency.
For data set [10], the target named is T1, GPR139. In words: GPR139 agonist potency, data from Shi et al. (Lundbeck series). It is filed as cell-based.
The conditions of data set [11]: in vivo; cited from earlier work. This is another data set of the same source.
The target of data set [12] is T1, GPR139. Nature of the data set: GPR139 agonist potency, data from Dvorak et al. (Janssen R&D series). Format: cell-based.
Data set [13] concerns the target T1, GPR139. Details: method as in PMID 24826842. As to conditions: GPR139 activation; cited from earlier work.
Data set [14] addresses T1, GPR139. Details: method as in ref 6, 13 (Liu et al.). To be noted: [35S]GTPγS binding, membranes from COS7 cells; 13 (Liu et al.); cited from earlier work. In general terms: Binding of GTPγS marks nucleotide exchange on a G protein.
For data set [15], the target named is T1, GPR139. Details: method as in ref 6, 13 (Liu et al.). As to conditions: concentration-dependent calcium response in HEK293 cells; 13 (Liu et al.); cited from earlier work.
Data set [16] addresses T1, GPR139. On the set-up: method as in ref 6, 13 (Liu et al.). As to conditions: calcium mobilization in HEK293; 13 (Liu et al.); cited from earlier work. Background: A change in cytosolic calcium serves as a functional read-out for many receptors and channels.
For data set [17], the target named is T2, M1 receptor. In words: cAMP dynamic 2 assay measuring Gi activation (forskolin) in CHO-M1 (control). It is filed as cell-based. To be noted: CHO-M1, high concentrations; unspecific response. Here is the method: as §3, §8, §9, §10, §11
Data set [18] addresses T1, GPR139. Details: method as in ref 15 (Hitchcock et al.). To be noted: ref 15 (Hitchcock et al.); cited from earlier work.

A word on the EC50: it is the midpoint of the concentration-response curve. As usually defined, the Emax is the maximal effect, on the per cent scale that the assay sets. In data set [1] (IP-One HTRF assay), `CC(NC(=O)CNC(=O)c1cccc(Cl)c1)c1ccccc1` (racemic) [7c (racemic)] came in with an EC50 of 0.49 µM. Moreover, in data set [1] (IP-One HTRF assay, relative to compound 1a, 7c at 10 μM and L-Trp at 20 mM (highest concentration tested)), the Emax is reported as 120^(*) %. Moreover, the agonist type entry in data set [1] is given as “super-agonists”.
As for `C[C@H](NC(=O)CNC(=O)c1cccc(Cl)c1)c1ccccc1` (racemic) [7c], in [2], the “IP1 response in CHO-M1 cells” value was “no response is seen in CHO-M1 cells”. In addition, the “Gs response (cAMP)” value in data set [3] and in [4] was “None of the tested compounds induced Gs response” throughout. For the same molecule, the “Inhibition of the cAMP response induced by 5 μM forskolin (Gi), in words” value (shortened to “Inhibition of the cAMP response induced”) in data set [5] is recorded as “none of the tested compounds were able to inhibit the cAMP response”. The Emax in data set [6] is given as 138%. Moreover, in [7], the “brain to plasma ratio” value is recorded as 1.2. For the same molecule, the efflux potential entry in [8] was “no efflux potential”.
Molecule `COc1cc(OC)cc(C(=O)NNC(=O)Nc2cccc3ccccc23)c1` [1a] yielded an EC50 in data set [1] (IP-One HTRF assay) of 1.05 µM. In addition, the “IP1 response in CHO-M1 cells” value in [2] is reported as “no response is seen in CHO-M1 cells”. Moreover, the “Gs response (cAMP)” value in [3] and in data set [4] was “None of the tested compounds induced Gs response” each time. In addition, in data set [5], the “Inhibition of the cAMP response induced” value was “none of the tested compounds were able to inhibit the cAMP response”. The Emax in data set [9] was 100%.
On to `COc1ccccc1C(=O)NNC(=O)Nc1cccc2ccccc12` [1c], for which, in data set [10], the “fold reduction of potency vs. 1a” value is reported as ~ 16 fold. Also, in data set [9], the EC50 was 0.62 µM and the Emax was 79%.
As to `COc1cccc(C(=O)NNC(=O)Nc2cccc3ccccc23)c1` [1f], the “fold reduction of potency vs. 1a” value in data set [10] was ~ 26 fold. Besides, in [9], the EC50 was 1 µM and the Emax is on record as 100%.
With `COc1cc(OC)cc(C(=O)NNC(=O)Cc2cccc3ccccc23)c1` [1s], the “fold reduction of potency vs. 1a” value in data set [10] was 2 fold and ~ 2.4 fold. Moreover, in data set [9], the EC50 was 0.088 µM and the Emax is reported as 95%. In addition, the brain exposure entry in data set [11] is given as “failed to increase brain exposure due to low plasma levels”.
Turning to `C[C@H](NC(=O)CNC(=O)c1ccccc1Cl)c1ccccc1` [7b], the “fold reduction of potency vs. 7c” value in data set [12] was ~ 3 fold. In addition, the Emax in data set [6] is reported as 120%.
In the case of `N[C@@H](Cc1ccccc1)C(=O)O` [L-Phe, L-Phenylalanine], the EC50 was 4450 µM in data set [1] (IP-One HTRF assay); 320 µM in [13]; 31 µM in data set [14]; 60 µM in data set [15]; 411 µM in data set [16]. In addition, in data set [2], the “IP1 response in CHO-M1 cells” value is reported as “no response is seen in CHO-M1 cells”. The “Gs response (cAMP)” value in data set [3] and in data set [4] was “None of the tested compounds induced Gs response” each time. Besides, the “Inhibition of the cAMP response induced” value in data set [5] was “none of the tested compounds were able to inhibit the cAMP response”.
In the case of `N[C@@H](Cc1c[nH]c2ccccc12)C(=O)O` [L-Trp, L-Tryptophan], the EC50 is about 8500 µM in data set [1] (IP-One HTRF assay); 220 µM in [13]; 26 µM in [14]; 49 µM in data set [15]; 287 µM in [16]. Besides, in data set [1], the agonist type result is listed as “super-agonists”. Also, the “IP1 response in CHO-M1 cells” value in [2] is reported as “no response is seen in CHO-M1 cells”. Also, the “Gs response (cAMP)” value in data set [3] and in [4] was “None of the tested compounds induced Gs response” in each case. Moreover, the “Inhibition of the 5 μM forskolin induced cAMP response” value is listed as “more than 10%” in data set [5] (CHO-139, high concentrations) and “more than 10%” in [17].
Turning to `COc1ccc(C(C)NC(=O)Cn2nnc3cc(C)ccc3c2=O)cc1` (centres unmarked) [compound 35], the EC50 in data set [18] is 0.042 µM.
Turning to `COc1ccc(C(C)NC(=O)Cn2nnc3cc(OC)ccc3c2=O)cc1` (centres unmarked) [compound 37], the concentration for a half-maximal effect (EC50) in data set [18] is 0.037 µM.
